We go through 99 compounds from PubChem BioAssay AID1552 (Sanford-Burnham Center for Chemical Genomics, 2009).

The source made the active and inactive calls. How the calls were made is not given here.

For the test, the target named is Ubiquitin-conjugating enzyme E2 N (Homo sapiens) (UniProt P61088). The test can be described thus: NMR detection of UBE2N ligand binding – biophysical, purified protein (AID 1552). The following applies: NMR binding to purified UBE2N.
Chain of Ubiquitin-conjugating enzyme E2 N (Homo sapiens) (P61088 whole entry, looked up): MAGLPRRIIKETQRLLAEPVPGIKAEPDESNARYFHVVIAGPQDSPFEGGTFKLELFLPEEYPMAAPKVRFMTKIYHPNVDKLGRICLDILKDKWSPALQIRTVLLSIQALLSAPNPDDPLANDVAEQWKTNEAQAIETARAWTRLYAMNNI
One may read the Kd as a measure of binding affinity in units of concentration. `CNC(=O)C(=O)Nc1cccc(Cl)c1`: the Kd is > 4 mM (inactive).

With `CC1(C)C(=O)C=C[C@@]2(C)C1=C(O)C(=O)[C@]1(C)C2CC[C@@]2(C)[C@H](c3ccoc3)C[C@H]3O[C@]321` (some centres undefined), the Kd was > 4 mM (inactive).

As to `COc1ccc(Cl)cc1NC(=O)c1ccco1`, the Kd is > 4 mM (inactive).

With `C=CCn1c(=S)[nH]c2ccc(Br)cc2c1=O`, the Kd was > 4 mM (inactive).

As for `COc1ccc(-c2coc3cc(O)ccc3c2=O)c(O)c1O`, the Kd is > 4 mM (inactive).

For the compound `O=C(O)C1=Cc2ccccc2OC1`, the Kd is > 4 mM (inactive).

With `C=C(C)[C@@H]1[C@H]2OC(=O)[C@@H]1[C@]1(O)C[C@H]3O[C@]34C(=O)O[C@H]2[C@]14C`, the Kd was > 4 mM (inactive).

As for `Cc1cc(C)n2c(SCc3cccs3)nnc2n1`, the Kd is > 4 mM (inactive).

In the case of `O=C(O)CC[N+](=O)[O-]`, the Kd was > 4 mM (inactive).

On to `O=C1CSC(=O)N1CNc1ccccc1`, for which the Kd was > 4 mM (inactive).

With `COc1cc(N)ncn1`, the Kd was > 4 mM (inactive).

In the case of `Cn1nc(C(=O)N2CCOCC2)c2ccccc2c1=O`, the Kd is > 4 mM (inactive).

In the case of `O=C(NCc1cccc(Cl)c1)c1ccco1`, the Kd was > 4 mM (inactive).

In the case of `Nc1nncn1C(=O)c1ccccc1Cl`, the Kd was > 4 mM (inactive).

Take `COC(=O)[C@@H]1C(O)CC[C@H]2CN3CCc4c([nH]c5ccccc45)[C@@H]3C[C@@H]21` (some centres undefined): the Kd is > 4 mM (inactive).

Regarding `CC(C)=NNC(=O)C(=O)Nc1ccc(F)cc1`, the Kd is > 4 mM (inactive).

For `CC(O)c1ccc(C(C)O)cc1` (centres undefined), the Kd was > 4 mM (inactive).

Take `O=C(NN1C(=O)C2C3C=CC(C3)C2C1=O)C1CC=CCC1` (centres undefined): the Kd was > 4 mM (inactive).

For the compound `COc1ccc(-c2c(OC)c3c(OC)c4c(cc3oc2=O)OC(C)(C)C=C4)cc1`, the Kd was > 4 mM (inactive).

For `Cc1cc(NC(=O)CSc2nncn2C)no1`, the Kd was > 4 mM (inactive).

Regarding `Cc1cc(C(=O)O)n[nH]1`, the Kd is > 4 mM (inactive).

As to `O=C(O)CN1CCNCC1`, the Kd was > 4 mM (inactive).

On to `Fc1cccc(Cl)c1CN1CCNCC1`, for which the Kd was > 4 mM (inactive).

Take `Cc1nc2c(n1O)CCc1c-2no[n+]1[O-]`: the Kd was > 4 mM (inactive).

For the compound `Cn1cc(Cl)c(C(=O)Nc2ccc(F)cc2F)n1`, the Kd is > 4 mM (inactive).

For `O=S1(=O)CCC(NCCO)C1` (centres undefined), the Kd was > 4 mM (inactive).

Turning to `CS(=O)(=O)NN=C1CCCCC1`, the Kd is > 4 mM (inactive).

For the compound `Cc1cc(=O)oc2c1c(C)nn2CN1CCN(C)CC1`, the Kd is > 4 mM (inactive).

For the compound `Cc1n[nH]c(=S)n(/N=C/c2cccs2)c1=O`, the Kd is > 4 mM (inactive).

For the compound `CC1=C2[C@H]3OC(=O)[C@@H](C)[C@@H]3CC[C@@]2(C)C=CC1=O`, the Kd is > 4 mM (inactive).

On to `CC1(C)O[C@H]2[C@H](O)C[C@](O)(C(N)=O)C[C@H]2O1`, for which the Kd is > 4 mM (inactive).

Take `COc1c(CC=C(C)C)c2c(c3oc(=O)c(-c4ccc(O)cc4)c(O)c13)C=CC(C)(C)O2`: the Kd is > 4 mM (inactive).

Regarding `O=c1c(-c2cccs2)[n+]([O-])c2ccccc2n1O`, the Kd was > 4 mM (inactive).

On to `CCCCCCCCCCCC1=C(O)C(=O)C=C(O)C1=O`, for which the Kd is > 4 mM (inactive).

Consider `O=c1[nH]cc(N2CCCCC2)c(=O)[nH]1`, for which the Kd is > 4 mM (inactive).

As to `Cc1ccc(N2CCN(C(=O)c3ccccc3)CC2)c(C)c1`, the Kd is > 4 mM (inactive).

On to `CCn1ccc(C(=O)Nc2nccs2)n1`, for which the Kd is > 4 mM (inactive).

For `COC(=O)C(O)[C@@H]1C2(C)C(=O)[C@@H](CC3=C4CC(=O)O[C@@H](c5ccoc5)[C@]4(C)CCC32)[C@H](OC(C)=O)C1(C)C` (some centres undefined), the Kd was > 4 mM (inactive).

In the case of `Cc1nc2ccc(C(=O)O)cc2[nH]1`, the Kd is > 4 mM (inactive).

For `c1cncc(Nc2nc(-c3ccncc3)cs2)c1`, the Kd was > 4 mM (inactive).

In the case of `Nc1[nH]c(=S)[nH]c(=O)c1-c1ccccc1`, the Kd is > 4 mM (inactive).

As for `NC(=O)C1CCN(C(=O)c2ccco2)CC1`, the Kd is > 4 mM (inactive).

As to `CC(=O)O[C@H]1C[C@@H](OC(C)=O)C(C)(C)C2C[C@@H](OC(C)=O)[C@]3(C)C(CC[C@@]4(C)[C@H](c5ccoc5)C(=O)[C@H]5O[C@]543)[C@]21C` (some centres undefined), the Kd is > 4 mM (inactive).

Regarding `CC(=O)Nc1ccc(NC(=O)/C=C\C(=O)O)cc1`, the Kd was > 4 mM (inactive).

As for `NC(=O)c1cc(Cl)c(C(N)=O)cc1Cl`, the Kd is > 4 mM (inactive).

In the case of `CCNC(=S)Nc1c(C)n(C)n(-c2ccccc2)c1=O`, the Kd was > 4 mM (inactive).

`O=[N+]([O-])c1ccc(/C=N/c2ncn[nH]2)cc1`: the Kd was > 4 mM (inactive).

In the case of `COc1ccc2ccc(=O)oc2c1`, the Kd was > 4 mM (inactive).

With `Cc1cc(C)n(S(=O)(=O)c2cc(C)c(C)cc2C)n1`, the Kd is > 4 mM (inactive).

Consider `NC(=O)c1c(Cl)nsc1-c1ccccc1Cl`, for which the Kd is > 4 mM (inactive).

Consider `COc1ccc(C[C@H]2NC[C@H](O)[C@H]2OC(C)=O)cc1`, for which the Kd is > 4 mM (inactive).

Consider `O=C1CCC(c2cccs2)=NN1`, for which the Kd was > 4 mM (inactive).

In the case of `Cc1ccc(SCc2cc(=O)n3[nH]cnc3n2)cc1`, the Kd was > 4 mM (inactive).

Regarding `NCc1ccc(S(N)(=O)=O)cc1`, the Kd was > 4 mM (inactive).

In the case of `Cc1cc(C(=O)N2CCN(S(C)(=O)=O)CC2)cs1`, the Kd is > 4 mM (inactive).

As to `Cc1csc(CCc2nc(C)cs2)n1`, the Kd is > 4 mM (inactive).

For `O=C1CC(=O)N(Cc2ccco2)C(=S)N1`, the Kd is > 4 mM (inactive).

Take `O=C(CCc1n[nH]c(=O)[nH]c1=O)NCc1ccccc1`: the Kd was > 4 mM (inactive).

Regarding `NC(=O)c1ccccc1NC(=O)c1cccnc1`, the Kd was > 4 mM (inactive).

Regarding `O=C(Nc1cccnc1)N1CCOCC1`, the Kd was > 4 mM (inactive).

For the compound `Cc1ccc(SCc2nc(-c3ccncc3)no2)cc1`, the Kd is > 4 mM (inactive).

For `COC(=O)CC1SC(=O)NC1=O` (centres undefined), the Kd is > 4 mM (inactive).

`CC(=O)Nc1ccn(-c2ccccc2)n1`: the Kd was > 4 mM (inactive).

Take `O=C(CSc1nc2ccccc2[nH]1)N1CCCCC1`: the Kd was > 4 mM (inactive).

As for `O=C(CSc1ncn[nH]1)c1ccccc1`, the Kd was > 4 mM (inactive).

On to `CCN1C[C@@]2(COC)C3[C@@H](OC)[C@H]4[C@@H]1[C@]3(C(OC)C[C@H]2O)C1C[C@@]2(O)[C@H](OC(=O)c3ccccc3)C1[C@]4(OC(C)=O)[C@@H](O)[C@@H]2OC` (some centres undefined), for which the Kd is > 4 mM (inactive).

`O=C(c1ccccc1)c1ccccc1C(=O)N1CCCC1`: the Kd is > 4 mM (inactive).

Turning to `O=c1[nH]c(CN2CCN(CCO)CC2)nc2ccccc12`, the Kd is > 4 mM (inactive).

Take `O=c1cc(O)nc(SCc2ccccc2)[nH]1`: the Kd is > 4 mM (inactive).

Consider `O=C(O)CN1C(=O)c2cccc([N+](=O)[O-])c2C1=O`, for which the Kd is > 4 mM (inactive).

Consider `CC(=O)Nc1ccc(-c2ccc3nncn3n2)cc1`, for which the Kd was > 4 mM (inactive).

Turning to `C[C@H]1O[C@@H](O[C@H]2[C@@H](O)C[C@H](O[C@H]3[C@@H](O)C[C@H](O[C@H]4CC[C@]5(C)C6C[C@@H](O)[C@]7(C)[C@@H](C8=CC(=O)OC8)CC[C@]7(O)C6CC[C@@H]5C4)O[C@@H]3C)O[C@@H]2C)C[C@H](O)[C@@H]1O` (some centres undefined), the Kd was > 4 mM (inactive).

For `CCCCCC1C(=O)CCC1CC(=O)OC` (centres undefined), the Kd is > 4 mM (inactive).

For `CC1O[C@@H](Oc2c(-c3ccc(O)c(O)c3)oc3cc(O)cc(O)c3c2=O)[C@H](O)[C@H](O)[C@H]1O` (some centres undefined), the Kd was > 4 mM (inactive).

For the compound `COc1ccc2c(c1)c1n[nH]c(=S)nc1n2C`, the Kd is > 4 mM (inactive).

As to `COc1cccc2c(=O)n(CC(N)=O)ccc12`, the Kd is > 4 mM (inactive).

For `c1ccc(C2NCCc3[nH]cnc32)cc1` (centres undefined), the Kd is > 4 mM (inactive).

For the compound `S=C(c1ccc2c(c1)OCO2)N1CCCC1`, the Kd is > 4 mM (inactive).

Turning to `O=C(Cc1cccs1)N1CCOCC1`, the Kd is > 4 mM (inactive).

Consider `NC1CN2CCC1CC2` (centres undefined), for which the Kd was > 4 mM (inactive).

Consider `O=C(Nc1nnc(-c2ccncc2)o1)c1cccs1`, for which the Kd is > 4 mM (inactive).

For `CN1CC(=O)Nc2ccc([N+](=O)[O-])cc2C1=O`, the Kd is > 4 mM (inactive).

As to `c1ccc2c(c1)[nH]c1cnccc12`, the Kd was > 4 mM (inactive).

Take `O=c1cc(-c2ccc(O)cc2)oc2cc(O)cc(O)c12`: the Kd was > 4 mM (inactive).

On to `O=C(NCc1ccncc1)c1cccc(F)c1`, for which the Kd is > 4 mM (inactive).

`Nc1cc(=O)[nH]c(=S)n1-c1ccc(F)cc1`: the Kd was > 4 mM (inactive).

`C[C@]12C=CC(=O)C=C1CCC1C2CC[C@]2(C)C(=O)CCC12` (some centres undefined): the Kd is > 4 mM (inactive).

In the case of `CCN1CCC(=NO)CC1`, the Kd was > 4 mM (inactive).

Take `COc1ccc2c(=O)c(OC)c(-c3ccccc3)oc2c1`: the Kd was > 4 mM (inactive).

Consider `OC1(c2ccc(Cl)cc2)CCNCC1`, for which the Kd is > 4 mM (inactive).

`CC(=O)Nc1ccc(S(=O)(=O)NCC2CCCO2)cc1` (centres undefined): the Kd was > 4 mM (inactive).

Regarding `CSc1ccc(C(=S)N2CCN(C)CC2)cc1`, the Kd was > 4 mM (inactive).

For `CC(O)C(=O)N/N=C/c1cccs1` (centres undefined), the Kd was > 4 mM (inactive).

For `O=c1[nH]c2ccccc2c(=O)n1CCCO`, the Kd is > 4 mM (inactive).

With `O=c1c(-c2ccc(O)cc2)coc2cc(O)ccc12`, the Kd is > 4 mM (inactive).

With `NS(=O)(=O)c1ccccc1Cl`, the Kd is > 4 mM (inactive).

`CC(C)(O)[C@@H]1Cc2cc3ccc(=O)oc3cc2O1`: the Kd was > 4 mM (inactive).

For the compound `NCCCCN=C(N)N`, the Kd was > 4 mM (inactive).

Turning to `COc1ccc(C2(CN)CCOCC2)cc1OC`, the Kd was > 4 mM (inactive).
